Results as given in publication PMC6274095 (Molecules, 2016).
Values belong to the compound of their own block, whether it stands above or below them.

What was measured:
[1] = biological target: T1, TRPV4 ion channel (Homo sapiens, UniProt Q9HBA0); assay: Calcium mobilization assay in HEK293/TRPV4 cells (GSK1016790A-stimulated); assay type: cell-based
T1 construct: host or cells: HEK293
Description: TRPV4 is another critical TRP ion channel that plays a role in thermal and mechanical hyperalgesia. TRPV4 shares similarity with TRPA1 [24, 25]. […] Firstly, the activating effect of the TRPV4 agonist GSK1016790A was tested. […] Thereafter, cardamonin was incubated with HEK293/TRPV4 cells at 90 μM, 30 μM, and 10 μM prior to 83 nM GSK1016790A stimulation. HEK293/TRPV4 cells treated in the absence of the test compound was the negative control and 330 μM ruthenium red was performed as the positive control.
(§1) Recombinant HEK293/TRPA1, HEK293/TRPV1, and HEK293/TRPV4 cell lines were generated by HD Bioscience Co. Ltd (Shanghai, China) following standard procedures as reported previously. HEK293/TRPA1 and HEK293/TRPV4 cells were cultured in complete DMEM medium with 100 μg/mL hygromycin B, 50 U/mL penicillin, and 100 μg/mL streptomycin. HEK293/TRPV1 cells were cultured with 350 μg/mL zeocin and 5 μg/mL blasticidin in complete DMEM culture medium.
(§2) Calcium influx upon TRPA1 activation by agonist stimulation was measured using calcium mobilization assay as reported previously. Briefly, cells were plated into 96-well microplates (matrigel coated) at a density of 3.5 × 10^4 cells per well. The plates were incubated at 37 °C with 5% CO2 overnight to allow the cells to recover. On the following day, replace cell culture medium with loading buffer containing Fluo-4 AM (MD, CA, USA), kept the plate at 37 °C for 30 min. Test compound was added to cells 10 min prior to the onset of TRAP1 agonist cinnamaldehyde, TRPV1 agonist 2APB, or TRPV4 agonist GSK1016790A. The calcium signal was captured with Flexstation II reader (MD, CA, USA) at 37 °C for TRPA1 and TRPV1 activation. The reader chamber was set at 24 °C for TRPV4 activation.

[2] = biological target: T2, TRPV1 channel (Homo sapiens, UniProt Q8NER1); assay: Calcium mobilization assay in HEK293/TRPV1 cells (2APB-stimulated); assay type: cell-based
T2 construct: host or cells: HEK293
Description: as §1, §2

[3] = system: neonatal rat cardiomyocytes (CMs); assay: Cardiotoxicity evaluation, xCELLigence RTCA cardio impedance; assay type: cell-based; settings: 10 μM
Description: To assess the potential adverse risk in cardiomyocytes, we administrated neonatal rat cardiomyocytes (CMs) with cardamonin, tested at 10 μM (22-fold of the IC50 value). Amiodarone (10 μM), an antiarrhythmic drug that delays cardiac repolarization through inhibiting hERG potassium channels [31], was performed as a positive cardio toxic control [32]. […] Amplitude represented the height of the print. […] Cell index represented cell number and viability. […] Cardiotoxicity test of cardamonin was performed with neonatal rat cardiomyocytes that obtained from 24 h Sprague-Dawley rats [47]. Compound treatment and cardiomyocytes impedance profiles were monitored as previously reported by Yu et al. [48]. Briefly, CMs cells were seeded into cardio E-Plate 96 that pre-coated with matrigel. Thereafter, cell culture medium was refreshed every day until CMs presented stable beating patterns. For compound treatment, 10× chemical dose solutions were prepared and added to the cells. The cell impedance was captured using xCELLigence RTCA cardio instrument.

[4] = system: HEK293 cells; assay: HEK293 cell viability, Cell Titer-Glo assay; assay type: cell-based; settings: 24 h
Description: In order to rule out the possibilities of false positives, we tested whether cardamonin induced cytotoxicity in HEK293 cells. The cells were seeded into 96-well plate and incubated in the presence or absence of cardamonin. HEK293 cells were incubated with cardamonin for 24 h. […] HEK293 cell viability was determined based on quantification of ATP using Cell Titer-Glo® luminescent Assay kit (Promega, Madison, WI, USA), which signals the presence of metabolically-active cells. Briefly, HEK293 cells were seeded into 96-well plates at a cell density of 3.5 × 10^4 cells per well, the plates were kept at 37 °C with 5% CO2 overnight. On the following day, cardamonin was added to the cells from a top concentration of 90 μΜ. The cells treated in the absence of the test compound were the negative control. After incubated for 24 h, Cell Titer-Glo reagent was added to the cells and Luminescence was acquired on EnVision™ 2100 Multilabel Reader (PerkinElmer, Santa Clara, CA, USA).

[5] = biological target: T3, hTRPA1 cation channel (Homo sapiens, UniProt O75762); assay: Calcium mobilization assay in HEK293/TRPA1 cells (cinnamaldehyde-stimulated); assay type: cell-based
T3 construct: host or cells: HEK293
Description: To discover a novel TRPA1 antagonist, a small library containing 156 natural chemicals were evaluated for their inhibitory effects on the TRPA1 ion channel at 10 μM (Figure 1A). The compound list was released previously. The cells were pre-incubated with cinnamaldehyde (CA) by its EC80 (90 μΜ) for 10 min and then treated with tested compounds. […] The time-course profile of the calcium signal was recorded (Figure 1B) and the peak value was used for determination of the maximum calcium mobilization.
as §1, §2

[6] = biological target: T3, hTRPA1 cation channel; settings: HEK293/TRPA1 activation; cited from earlier work

T3 sequence (O75762 whole entry): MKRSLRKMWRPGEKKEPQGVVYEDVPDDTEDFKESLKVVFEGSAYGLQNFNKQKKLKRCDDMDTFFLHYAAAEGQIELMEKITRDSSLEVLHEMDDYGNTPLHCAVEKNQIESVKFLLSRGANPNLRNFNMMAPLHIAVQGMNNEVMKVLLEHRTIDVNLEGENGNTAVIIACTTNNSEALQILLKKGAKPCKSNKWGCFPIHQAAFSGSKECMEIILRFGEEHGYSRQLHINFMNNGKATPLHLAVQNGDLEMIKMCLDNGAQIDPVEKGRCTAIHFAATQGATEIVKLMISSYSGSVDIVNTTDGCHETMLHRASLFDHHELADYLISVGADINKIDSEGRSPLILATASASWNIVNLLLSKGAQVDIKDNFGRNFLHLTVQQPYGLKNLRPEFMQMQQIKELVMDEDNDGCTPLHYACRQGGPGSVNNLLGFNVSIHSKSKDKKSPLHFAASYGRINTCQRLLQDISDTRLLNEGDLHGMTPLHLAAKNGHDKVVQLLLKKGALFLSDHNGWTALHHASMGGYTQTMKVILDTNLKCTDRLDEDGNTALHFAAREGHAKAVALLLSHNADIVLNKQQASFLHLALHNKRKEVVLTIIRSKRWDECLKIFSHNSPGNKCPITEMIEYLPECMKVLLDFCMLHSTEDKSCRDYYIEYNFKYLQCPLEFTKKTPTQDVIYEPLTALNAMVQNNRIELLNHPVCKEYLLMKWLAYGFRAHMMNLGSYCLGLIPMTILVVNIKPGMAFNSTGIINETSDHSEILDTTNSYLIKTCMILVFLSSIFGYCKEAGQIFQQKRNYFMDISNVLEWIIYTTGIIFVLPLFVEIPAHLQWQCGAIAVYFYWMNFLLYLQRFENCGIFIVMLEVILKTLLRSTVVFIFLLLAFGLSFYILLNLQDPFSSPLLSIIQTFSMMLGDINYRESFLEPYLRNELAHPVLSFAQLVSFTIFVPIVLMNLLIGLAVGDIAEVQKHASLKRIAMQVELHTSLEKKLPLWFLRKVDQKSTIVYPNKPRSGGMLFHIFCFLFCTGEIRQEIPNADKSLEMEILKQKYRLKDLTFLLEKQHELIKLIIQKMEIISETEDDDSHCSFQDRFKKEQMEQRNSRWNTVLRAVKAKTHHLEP
T1 sequence (Q9HBA0 whole entry): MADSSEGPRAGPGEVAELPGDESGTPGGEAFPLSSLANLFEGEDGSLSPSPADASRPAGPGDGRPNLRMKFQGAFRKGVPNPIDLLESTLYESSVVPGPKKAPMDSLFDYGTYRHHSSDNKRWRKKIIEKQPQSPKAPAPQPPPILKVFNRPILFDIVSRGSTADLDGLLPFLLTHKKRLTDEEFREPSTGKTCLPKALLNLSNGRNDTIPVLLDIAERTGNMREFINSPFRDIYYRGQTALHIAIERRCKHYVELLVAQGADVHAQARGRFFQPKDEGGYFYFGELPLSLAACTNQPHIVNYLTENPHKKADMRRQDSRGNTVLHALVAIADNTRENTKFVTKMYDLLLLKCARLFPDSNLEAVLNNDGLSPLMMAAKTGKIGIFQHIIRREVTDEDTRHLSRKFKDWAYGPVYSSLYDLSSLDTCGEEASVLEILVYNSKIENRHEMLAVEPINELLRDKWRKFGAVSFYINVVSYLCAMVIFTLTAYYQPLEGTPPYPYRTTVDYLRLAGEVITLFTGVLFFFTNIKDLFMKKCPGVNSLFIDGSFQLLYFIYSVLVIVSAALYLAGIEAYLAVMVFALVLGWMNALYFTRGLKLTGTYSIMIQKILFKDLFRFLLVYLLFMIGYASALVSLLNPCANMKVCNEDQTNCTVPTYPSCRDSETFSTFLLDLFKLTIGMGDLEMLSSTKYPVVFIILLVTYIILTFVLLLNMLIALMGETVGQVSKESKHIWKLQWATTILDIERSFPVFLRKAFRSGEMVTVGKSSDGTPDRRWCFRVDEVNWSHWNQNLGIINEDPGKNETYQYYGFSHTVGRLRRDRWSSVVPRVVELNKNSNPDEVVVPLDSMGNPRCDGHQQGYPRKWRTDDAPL
T2 sequence (Q8NER1 whole entry): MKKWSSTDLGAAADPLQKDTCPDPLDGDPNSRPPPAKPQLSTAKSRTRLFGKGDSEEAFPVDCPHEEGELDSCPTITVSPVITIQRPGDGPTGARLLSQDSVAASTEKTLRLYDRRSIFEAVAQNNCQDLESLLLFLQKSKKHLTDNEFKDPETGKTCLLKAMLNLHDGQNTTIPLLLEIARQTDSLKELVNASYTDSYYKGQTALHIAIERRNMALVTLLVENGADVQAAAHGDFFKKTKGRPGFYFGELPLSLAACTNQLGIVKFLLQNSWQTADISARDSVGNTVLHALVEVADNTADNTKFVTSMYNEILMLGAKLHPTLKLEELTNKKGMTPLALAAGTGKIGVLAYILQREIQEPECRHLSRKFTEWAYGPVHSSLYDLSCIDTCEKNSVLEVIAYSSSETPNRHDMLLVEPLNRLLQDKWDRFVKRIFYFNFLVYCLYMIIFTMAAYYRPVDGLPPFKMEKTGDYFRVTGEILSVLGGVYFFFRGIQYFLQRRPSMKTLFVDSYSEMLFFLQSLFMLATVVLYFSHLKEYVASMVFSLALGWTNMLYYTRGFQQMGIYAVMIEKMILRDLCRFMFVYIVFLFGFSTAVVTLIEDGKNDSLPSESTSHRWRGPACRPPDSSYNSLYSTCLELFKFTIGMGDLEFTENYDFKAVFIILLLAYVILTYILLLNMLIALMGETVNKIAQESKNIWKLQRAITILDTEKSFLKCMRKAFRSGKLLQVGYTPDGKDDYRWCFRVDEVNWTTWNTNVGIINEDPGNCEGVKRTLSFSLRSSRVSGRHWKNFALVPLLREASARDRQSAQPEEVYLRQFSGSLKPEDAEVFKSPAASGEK

IC50 ([1]; HEK293/TRPV4, added 10 min prior to 83 nM GSK1016790A, 24 °C, read-out: IC50, blocking TRPV4 activation): 29.8 µM | IC50 ([2]; HEK293/TRPV1, 1 mM 2APB stimulation, read-out: IC50, inhibition of TRPV1 activation): 207 µM
SMILES: Cl.Cl.Cl.Cl.Cl.Cl.N.N.N.N.N.N.N.N.N.N.N.N.N.N.[O-2].[O-2].[Ru+3].[Ru+3].[Ru+4] [ruthenium red, reference compound]

SMILES: CCCCc1oc2ccccc2c1C(=O)c1cc(I)c(OCCN(CC)CC)c(I)c1 [amiodarone, reference compound]
CMs' beating rate [3]: significantly decreased

SMILES: COc1cc(O)cc(O)c1C(=O)/C=C/c1ccccc1 [cardamonin]
Cytotoxicity in HEK293 cells ([4]; 90 μΜ (top concentration)): slight cell injury | Cytotoxicity in HEK293 cells ([4]; within 30 μΜ, p > 0.05): no detectable cytotoxicity | Inhibition of TRPV4 calcium signal ([1]; 90 μM, 30 μM and 10 μM prior to 83 nM GSK1016790A): No detectable inhibiting effect | IC50 [5]: 454 nM | Inhibition of CA induced HEK293/TRPA1 activation (screen) ([5]; 10 μM compound, 90 μM cinnamaldehyde): significantly inhibited | Blockage of TRPA1 activity ([5]; at 90 μM compound): Full blockage | Activation of TRPA1 by compound alone ([5]; without agonist): could not activate TRPA1 alone | Amplitude profile of CMs [3]: in accordance with vehicle control | CMs' beating pattern (real-time beating impedance) [3]: did not induce dramatic alteration | CMs' beating rate [3]: not | Cell index (CMs cell number and cell viability) [3]: did not significantly decrease | Inhibition of calcium influx in HEK293/TRPV1 cells ([2]; 90 μΜ, 30 μΜ and 10 μΜ, pre-treated 10 min, 1 mM 2APB, 37 °C): failed to inhibit calcium influx

SMILES: CC(C)C[C@H](NC(=O)c1cc2ccccc2s1)C(=O)N1CCN(C(=O)[C@H](CO)NS(=O)(=O)c2ccc(Cl)cc2Cl)CC1 [GSK1016790A]
EC50 [1]: 9.2 nM

SMILES: O=C/C=C/c1ccccc1 [cinnamaldehyde]
EC80 of TRPA1 agonist [6]: 90 μΜ
